# Source: patent publication US20240182446A1, “TYK2 INHIBITOR COMPOUND CONTAINING BICYCLIC RING” (CHIA TAI TIANQING PHARMACEUTICAL GROUP CO., LTD., priority 2021, published 2024)
# Like-named read-outs stand apart in the source and are kept apart here. Marks after values point to notes of the source that are not given here.
# Key:
# [1] = system: STAT3 phosphorylation in Jurkat cells; assay: Detection of STAT3 phosphorylation using Jurkat cells stimulated with IFN-α; format: cell-based; settings: Homo sapiens, IFN-α 25 ng/mL, 30 min, compound pre-incubation 1.5 h
# Procedure: 20 μL of Jurkat cells growing at log phase were taken and counted, and the required number of cells (mL) were taken and centrifuged at 1300 rpm for 3 min. Phenol red-free 1640 base medium (Hyclone) was added to adjust the cell density to about 1.7*10E7 cells/mL. The cells were seeded according to the above cell density in a 384-well plate (small-volume white plate) at 8 μL per well. The compound was added with a nanoliter pipettor, and the plate was incubated for 1.5 h. IFN-α (Beijing Sino Biological) was diluted to 75 ng/mL (with a final concentration of 25 ng/mL) with phenol red-free 1640 base medium. Subsequently, 4 μL of IFN-α (3×) was added to each well according to the plate distribution. The blank group was seeded with cells, without compound and IFN-α. The control group was seeded with cells, without compound but with IFN-α. The plate was incubated at 37° C. for 30 min. 4 μL of lysis buffer (4×) containing blocking buffer was added immediately, and the cells were lysed by shaking at room temperature for 40 min. […] pre-mixed antibody (vol/vol) in assay buffer was added and the plate was covered. The mixture was mixed well by centrifugation and incubated overnight at room temperature. Signal values at 665 nm/620 nm were detected using a PE Envision multi-functional microplate reader, and IC50 was calculated by tour-parameter fitting.
# [2] = In vivo pharmacokinetics in mice; settings: ICR mice, plasma; for AUC(0-t): read-out: AUC(0-10 h); for MRT last: read-out: MRT(0-t)
# Procedure: ICR mice (Shanghai Institute of Planned Parenthood Research) of 6-8 weeks old, weighing 20-24 g, were randomized into groups of 9 after 3-5 days of acclimatization, and the test compounds at a dose of 15 mg/kg or 30 mg/kg were administered intragastrically to the mice.
# The animals to be tested (ICR mice) were fasted for 12 h before administration and food was provided 4 h after administration, and water was freely drunk before and after the experiment and during the experiment.
# After intragastrric administration, about 0.1 mL of blood was collected from the orbit at 0.25 (15 min), 0.5 (30 min), 1, 2, 4, 6, 8, and 10 h. Each mouse was subjected to blood collection at 3-4 time points, with three mice per time point. The blood samples were mixed with EDTA-K2 anticoagulant, transferred to a centrifuge within 30 min, and then centrifuged at 4000 rpm for 10 min. at 4° C. to separate the plasma. All the plasma samples were collected and immediately stored at −20° C. for testing.
# 400 μL of acetonitrile solution containing an internal standard (20 ng/mL) was added to 20 μL of the collected plasma sample to be tested. The mixture was shaken and mixed well for 10 min, and centrifuged at 13,000 rpm for 10 min 50 μL of supernatant was taken and diluted with 100 μL of ultrapure water. After being mixed well, 0.5 μL of the resulting sample was subjected to LC/MS/MS, and a chromatogram was recorded.
# Oral exposure of the compounds disclosed herein was evaluated by in vivo pharmacokinetic experiments in mice.
# [3] = In vitro stability in liver microsomes (human); format: in vitro ADME; settings: compound 1 μM
# Procedure: (§1) 300 μL of the final incubation system contained 30 μL of liver microsomes (protein concentration: 5 mg/mL). 30 μL of NADPH+MgCl2, 3 μL of the test compound (in acetonitrile), and 237 μL of PBS buffer (pH 7.4), wherein the proportion of the organic solvent (acetonitrile) was 1% (volume ratio). Samples were prepared in duplicate of 0.30 mL for each specie. Tubes each containing 270 μL of a mixed solution of substrate and enzyme and NADPH were pre-incubated at 37° C. for 5 min. 30 μL of NADPH+MgCl2 was added and the mixture was mixed. 50 μL of the mixture was taken at 0 min, 10 min, 30 min, and 60 min, and 300 μL of glacial acetonitrile containing an internal standard was added to terminate the reaction.
# (§2) 300 μL of glacial acetonitrile containing an internal standard (20 ng/mL) was added to 50 μL of the incubated sample for precipitation. The mixture was vortexed for 10 min and centrifuged (13,000 rpm, 20° C.) for 10 min. 70 μL of supernatant was taken and diluted with 70 μL of ultrapure water. After being mixed well, 0.5 μL of the resulting sample was subjected to LC/MS/MS analysis.
# [4] = In vitro stability in liver microsomes (mouse); format: in vitro ADME; settings: compound 1 μM
# Procedure: as §1, §2
# [5] = system: mouse colitis model induced by anti-mouse CD40 antibody; assay: Pharmacodynamics in mouse colitis model induced by anti-CD40 mAb antibody; format: in vivo, CB17-SCID mice; settings: Day 7, vs model control
# Procedure: SPF-grade male CB17-SCID mice (6-8 weeks old) were divided into groups on the first day of the experiment. On the first day of the experiment, the mice in the blank group were intraperitoneally injected with PBS, while the mice in the model group were intraperitoneally injected with anti-mouse CD40 antibody (100 μg, diluted with PBS as a modeling agent solution), so as to establish a mouse colitis model. The injection volume for all groups of mice was 0.1 mL.
# The day of grouping was determined as Day 1, and the intragastric administration was started on the grouping day, with a volume of 2 mL/kg administered twice daily for 6 consecutive days. The vehicle for intragastric administration was: DMSO:PEG400=5:95 (volume ratio).
# Animal body weights were monitored daily during the experiment. On Day 7, the end point of the experiment, all mice were euthanized and tissue samples were collected. Mice were euthanized by cervical dislocation, abdomen of the mice were cut open, and mouse spleens were collected, weighed, and photographed. The colorectum was separated from the small intestine from the end of the cecum to the anus, and the whole colorectum was removed, photographed, and then dissected longitudinally along its longitudinal axis. The intestinal contents were cleansed with a pre-cooled saline solution. The rinsed colorectum was laid flat in a large flat dish with the mucosal side thereof facing upward. Residual saline solution was removed from the […] with filter paper, and colonic tissues were taken for weighing.
# The inhibition rate (%) was calculated according to the following formula: inhibition rate (%)=(M−T)/(M−C)*100% (T: treatment group; C: blank control group; M: model control group).
# [6] = In vitro stability in liver microsomes (monkey); format: in vitro ADME; settings: compound 1 μM
# Procedure: as §1, §2
SMILES,IC50 [1],Human Residuals at 60 min (%) [3],Mouse Residuals at 60 min (%) [4],also measured
[2H]C([2H])([2H])NC(=O)c1nnc(NC(=O)C2CC2)cc1Nc1cccc(-c2ncc(N3CCC(C)(C)C3=O)cn2)c1OC [Compound 49-j],5.2 nM,–,–,–
[2H]C([2H])([2H])NC(=O)c1nnc(NC(=O)C2CC2)cc1Nc1cccc(-c2ncc(-c3ccnn3C)cn2)c1OC [Compound 34-h],5.7 nM,99.75%,92.69%,"AUC(0-inf) ([2]; mouse, po, IG 15 mg/kg): 66700 ng·h/mL; Tmax ([2]; mouse, po, IG 15 mg/kg): 4 h; half-life ([2]; mouse, po, IG 15 mg/kg): 4.19 h; AUC(0-t) ([2]; mouse, po, IG 15 mg/kg): 65300 ng·h/mL; Cmax ([2]; mouse, po, IG 15 mg/kg, read-out: Cmax): 10200 ng/mL; MRT last ([2]; mouse, po, IG 15 mg/kg): 4.44 h; Spleen coefficient Inhibition rate (%) ([5]; 5 mg/kg i.g. bid for 6 days): 83%***; Spleen weight Inhibition rate (%) ([5]; 5 mg/kg i.g. bid for 6 days): 82%***; Weight of intestinal tissue per unit length Inhibition rate (%) ([5]; 5 mg/kg i.g. bid for 6 days): 70%***"
[2H]C([2H])([2H])NC(=O)c1nnc(NC(=O)C2CC2)cc1Nc1cccc(-c2ncc(-c3cccnc3)cn2)c1OC [Compound 1-j],4.5 nM,–,–,–
[2H]C([2H])([2H])NC(=O)c1nnc(NC(=O)C2CC2)cc1Nc1cccc(-c2ncc(-c3cccnc3C#N)cn2)c1OC [Compound 26-h],5.3 nM,–,–,–
[2H]C([2H])([2H])NC(=O)c1nnc(NC(=O)C2CC2)cc1Nc1cccc(-c2ncc(-n3ccnc3C)cn2)c1OC [Compound 55-j],5.2 nM,–,–,–
[2H]C([2H])([2H])NC(=O)c1nnc(NC(=O)C2CC2)cc1Nc1cccc(-c2ncc(-c3cccnc3F)cn2)c1OC [Compound 5-j],2.9 nM,107.15%,99.08%,"AUC(0-inf) ([2]; mouse, po, IG 30 mg/kg): 62600 ng·h/mL; Tmax ([2]; mouse, po, IG 30 mg/kg): 0.5 h; half-life ([2]; mouse, po, IG 30 mg/kg): 4.48 h; AUC(0-t) ([2]; mouse, po, IG 30 mg/kg): 60800 ng·h/mL; Cmax ([2]; mouse, po, IG 30 mg/kg, read-out: Cmax): 8100 ng/mL; MRT last ([2]; mouse, po, IG 30 mg/kg): 6.26 h; Monkey Residuals at 60 min (%) [6]: 99.31%"
[2H]C([2H])([2H])NC(=O)c1nnc(NC(=O)C2CC2)cc1Nc1cccc(-c2ncc(N3CC(C)(C)CC3=O)cn2)c1OC [Compound 47-j],2.4 nM,–,–,–
[2H]C([2H])([2H])NC(=O)c1nnc(NC(=O)C2CC2)cc1Nc1cccc(-c2ncc(N3CCCC3=O)cn2)c1OC [Compound 18-h],5.3 nM,106.77%,94.80%,–
[2H]C([2H])([2H])NC(=O)c1nnc(NC(=O)C2CC2)cc1Nc1cccc(-c2ncc(-c3cccnc3C)cn2)c1OC [Compound 52-j],2.7 nM,–,–,Spleen coefficient Inhibition rate (%) ([5]; 15 mg/kg i.g. bid for 6 days): 101%***; Spleen weight Inhibition rate (%) ([5]; 15 mg/kg i.g. bid for 6 days): 102%***; Weight of intestinal tissue per unit length Inhibition rate (%) ([5]; 15 mg/kg i.g. bid for 6 days): 101%***
[2H]C([2H])([2H])NC(=O)c1nnc(NC(=O)C2CC2)cc1Nc1cccc(-c2ncc(N3CC[C@H](O)C3)cn2)c1OC [Compound 53-j],5.1 nM,–,94.17%,–
[2H]C([2H])([2H])NC(=O)c1nnc(NC(=O)C2CC2)cc1Nc1cccc(-c2ncc(-c3cccnc3C(F)(F)F)cn2)c1OC [Compound 6-j],2.4 nM,100.18%,–,"Cmax ([2]; IG 30 mg/kg): 12534 ng/mL; t1/2 ([2]; IG 30 mg/kg): 6.26 h; AUC(0-inf) ([2]; mouse, po, IG 30 mg/kg): 63600 ng·h/mL; Tmax ([2]; mouse, po, IG 30 mg/kg): 0.5 h; AUC(0-t) ([2]; mouse, po, IG 30 mg/kg): 61200 ng·h/mL; MRT last ([2]; mouse, po, IG 30 mg/kg): 4.74 h; Spleen coefficient Inhibition rate (%) ([5]; 5 mg/kg i.g. bid for 6 days): 81.78%**; Spleen weight Inhibition rate (%) ([5]; 5 mg/kg i.g. bid for 6 days): 83.38%; Weight of intestinal tissue per unit length Inhibition rate (%) ([5]; 5 mg/kg i.g. bid for 6 days): 76.21%***"
[2H]C([2H])([2H])NC(=O)c1nnc(NC(=O)C2CC2)cc1Nc1cccc(-c2ncc(-c3cncnc3C)cn2)c1OC [Compound 54-j],3.4 nM,–,92.35%,–
[2H]C([2H])([2H])NC(=O)c1nnc(NC(=O)C2CC2)cc1Nc1cccc(-c2ncc(N3CC[C@@H](O)C3)cn2)c1OC [Compound 44-j],–,98.44%,91.31%,–
[2H]C([2H])([2H])NC(=O)c1nnc(NC(=O)C2CC2)cc1Nc1cccc(-c2ncc(N3CC(O)C3)cn2)c1OC [Compound 51-j],7.1 nM,–,96.42%,–
[2H]C([2H])([2H])NC(=O)c1cnc(NC(=O)C2CC2)cc1Nc1cccc(-c2ncc(N3CCCC3)cn2)c1OC [Compound 60-j],8.5 nM,–,–,–
[2H]C([2H])([2H])NC(=O)c1cnc(NC(=O)C2CC2)cc1Nc1cccc(-c2ncc(-c3cccnc3F)cn2)c1OC [Compound 57-j],4.4 nM,–,–,–
[2H]C([2H])([2H])NC(=O)c1nnc(NC(=O)C2CC2)cc1Nc1cccc(-c2ncc(-c3ccc(F)nc3F)cn2)c1OC [Compound 12-j],4.5 nM,–,–,–
[2H]C([2H])([2H])NC(=O)c1nnc(NC(=O)C2CC2)cc1Nc1cccc(-c2ncc(N3CC[C@@H](O)C3)cn2)c1OC [Compound 59-j],5 nM,–,100.66%,–
[2H]C([2H])([2H])NC(=O)c1nnc(NC(=O)C2CC2)cc1Nc1cccc(-c2ncc(-c3ccc(F)nc3)cn2)c1OC [Compound 3-j],–,103.99%,99.92%,Monkey Residuals at 60 min (%) [6]: 95.82%
